Measurements: patent US20250066306A1, “COMPOUNDS FOR TREATING MICROBIAL INFECTIONS, METHODS OF MAKING AND USES THEREOF” (McMaster University, priority 2023, published 2025)
“Also recorded” adds a separate entry of the source. Read-outs that look alike come from different tables or passages of the source.

Assays:
HSV-1 [1] = conditions: earlier work, refs 3d, 5a; cited from earlier work
HSV-1 [2] = format: cell-based; conditions: 9001 and 01SD brain organoids, fourteen-week old; compounds 10 μM, ACV 50 μM; day 3 p.i.
[3] = tested on: eukaryotic initiation factor 2 (EIF2) signaling pathway; test: Ingenuity Pathway Analysis of differentially expressed genes; format: cell-based, human; conditions: IPA of DEG, treated vs vehicle; 10 μM
Protocol: Differentially Expressed Genes (DEG) measured by comparing 2b- and Ia (compound 8)-treated NPCs vs. vehicle-treated NPCs were subjected to Ingenuity Pathway Analysis (IPA). The top 10 pathways showing the greatest statistical significance (Fisher's Exact Test p-value) are shown. Activation (+ve z-score, orange bars) or inhibition (−ve z-score, blue bars) of each pathway is a measure of experimentally determined gene expression changes reported in the literature. Data were analyzed through the use of QIAGEN Ingenuity® Pathway Analysis. The intensity of color indicates the degree of activation/inhibition. Pathways without an activity pattern are in grey. Ratios (orange square above each pathway) represent the degree of overlap between DEG and all members of a given pathway. Y-axis on the right indicates ratio values.
Statistical significance was calculated using right-tailed Fisher Exact Probability Tests; biological pathways showing p-value<0.05 were considered statistically significant. […] IPA analyses also indicated net upregulation in the autophagy and sirtuin signaling pathways.

HSV-1 [4] = conditions: ex vivo mouse model; earlier work; cited from earlier work
[5] = tested on: iPSC-derived neural progenitor cells (NPCs); conditions: earlier work; cited from earlier work
HSV-1 [6] = test: HSV-1 DualF infection of iPSC-derived NPC monolayers, flow cytometry of EGFP/RFP; format: cell-based; conditions: for reduction of the percentage of EGFP+-RFP+ cells / anti-HSV-1 activity: 10 μM; for reduction of the percentage of EGFP+-RFP+ cells: MOI 0.1, added 2 h after infection, day 3 p.i., flow cytometry; for antiviral efficacy of ACV compared with Ia: ACV 50 μM vs Ia 10 μM; for anti-HSV-1 activity: 01SD and 9001 NPCs
[7] = tested on: fibroblasts and hepatocytes; conditions: earlier work; cited from earlier work
[8] = tested on: Calu3 (ATCC, HTB-55) cells; conditions: assessed at NIH
01SD NPC cultures = test: Cytotoxicity in uninfected 01SD NPC cultures, flow cytometry with fixable viability dye; format: cell-based, human; conditions: uninfected 01SD NPCs
SARS-CoV2 = test: NIH-NIAID in vitro SARS-CoV2 viral replication assay in Calu3 cells; format: cell-based
02SF NPCs = test: RNA sequencing of uninfected NPCs treated with compounds; format: cell-based, human; conditions: 10 μM, 72 hours; of 12,433 expressed genes; FDR corrected p<=0.05
[9] = tested on: eIF2α phosphorylated on Serine 51; test: Immunocytochemistry of eIF2α phosphorylated on serine 51 in NPC cultures; format: cell-based, human; conditions: 9001 NPCs; 10 μM; 24 hours; vs untreated or 7-treated
Protocol: (A) NPCs derived from 9001 iPSC lines were exposed to compounds 7, Ia (compound 8), and 2b (10 μM). After 24 hours, cells were fixed and stained with an antibody that detects eIF2α phosphorylated on Serine 51 (EIF2S1). Nuclei were counterstained with Hoechst 33342, and phosphorylation was assessed by fluorescence microscopy. (B) The corrected total cell fluorescence (CTCF) was obtained by measuring EIF2S1 fluorescence in cells where a fluorescent signal could be detected and normalizing for cellular area using equation CTCF=integrated density−(cellular area×mean fluorescence of background readings) (C-D). Up-regulation of the EIF2A kinase EIF2AK3 (C) and the activated transcription factor 4 (ATF4) (D) in 2b- and Ia (compound 8)-treated NPCs. (E) Proposed mechanism of action of 2b and Ia (compound 8).

[10] = earlier work, refs 5a, 5b; cited from earlier work
[11] = tested on: 9001 and 01SD brain organoids; test: Organoid viability, calcein AM assay; format: cell-based, human; conditions: without HSV-1 infection; concentrations up to 50 μM
Protocol: (A) Sixteen-week old 9001 and 01SD brain organoids were infected individually with HSV-1 DualF construct (6000 pfu/organoid). After 2 hours the inocula were removed and Ia was added to varying concentrations (100 nM-[…]). The IC50 was estimated by determining the corrected total cell fluorescence (CTCF) obtained by measuring EGFP fluorescence in organoids using ImageJ and normalizing for background using equation CTCF=integrated density−(area of the organoid x mean fluorescence of background readings). (b) Cytotoxicity of compound Ia without HSV-1 infection was assessed using calcein-AM. The fluorescence of calcein-AM in each organoid was measured and CTCF was determined as described above. The data represent an average of six independent experiments. Error bars represent standard deviations. No significant difference were found between conditions. […]
Organoids viability was analyzing using calcein AM assay (BioLegend; catalogue #425201), according to manufacturer's instructions. […] After incubation, fluorescence signals were recorded using a LEICA DMIL LED Fluorescent microscope through a 0.16NA 4x air objective.
The corrected total cell fluorescence (CTCF) was obtained by measuring EGFP fluorescence in 799-treated and untreated organoids, and normalizing for whole organoid area using equation CTCF=integrated density−(whole organoid area x mean fluorescence of background readings).

HSV-1 strain 17syn+ = test: In vivo mouse eye HSV-1 infection (corneal scarification), plaque assay of eye swabs; set-up: species or system ND4 Swiss mice
From the text: ND4 swiss mice were infected by corneal scarification with 1×10^5 pfu of HSV-1 strain 17syn+. Eyes were swabbed daily for 4 days and assayed for infectious virus by standard plaque assay.
The antiviral efficacy of compound Ia was further investigated in an in vivo mouse model. In order to assess the efficacy of Ia against an acute infection go HSV-1 in vivo, ND4 Swiss mice were infected in the eyes with HSV-1 following light corneal scarification. At the same time that the virus was applied, one group of mice (n=10) were treated with 2 uL of a 50 μM solution of R799 in DMSO and the other group (n=10) were treated with 2 uL DMSO (vehicle), applied to the eyes. The eyes were treated with either vehicle or Ia each day for 4 days. In order to assess the effect of Ia on the course of the infection, the eyes were swabbed daily with a Dacron swab, and the virus eluted in MEM medium. The swab eluate was assessed for the presence of infectious virus by standard plaque assay on rabbit skin cell monolayers.

O=C1N[C@H]2[C@H](O)[C@H](O)[C@@H](O)C[C@@H]2c2cc3c(cc21)OCO3 (relative stereo) [Compound 2b, trans-dihydrolycoricidine, reference compound]
inhibition of HSV-1 replication compared with acyclovir (HSV-1 [1]): more efficaciously than acyclovir
anti-HSV-1 activity (expression of EGFP and RFP reporter genes) (HSV-1 [2]): no expression of EGFP and RFP reporter genes
EIF2 signaling pathway z score [3]: −2.857
HSV-1 reactivation from latency (HSV-1 [4]): prevents HSV-1 reactivation from latency
toxicity in comparison to acyclovir [5]: lower toxicity
reduction of the percentage of EGFP+-RFP+ cells (HSV-1 [6]; 01SD NPCs): 8016 fold
reduction of the percentage of EGFP+-RFP+ cells (HSV-1 [6]; 9001 NPCs): 424 fold
toxicity in comparison to acyclovir [7]: Slightly higher toxicity
CC [8]: 3.48 µM
concentration from which a reduction in cell viability was observed (01SD NPC cultures): ≥ 25 µM
IC50 (SARS-CoV2; SARS-CoV2 in Calu3 cells, assessed at NIH, read-out: IC50): 180 nM
fraction of expressed genes significantly altered (02SF NPCs): 62.5%
number of genes whose expression was significantly altered (02SF NPCs): 7,766
eIF2α~P immunoreactivity [9]: increased eIF2α˜P immunoreactivity

Nc1nc2c(ncn2COCCO)c(=O)[nH]1 [ACV, acyclovir, reference compound]
antiviral efficacy of ACV compared with Ia (HSV-1 [6]; 01SD NPCs, p=0.0208): inferior to Ia
antiviral efficacy of ACV compared with Ia (HSV-1 [6]; 9001 NPCs, p=0.3597): comparable

O=C1NC2C(CC(O)C(O)C2O)c2cc3c(cc21)OCO3 (stereo not drawn) [C3-epimer of 2b]
antiviral activity [10]: totally devoid of antiviral activity

COc1ccc2c(c1)[C@H]1C[C@H](O)[C@@H](O)[C@@H](O)[C@@H]1NC2=O [Compound 5, (2S,3R,4S,4aR,10bR)-2,3,4-Trihydroxy-9-methoxy-1,3,4,4a,5,10b-hexahydrophenanthridin-6(2H)-one]
solubility in DMSO (Solubility in DMSO): incompletely soluble in DMSO
anti-HSV-1 activity (HSV-1 [6]): no anti-HSV-1 activity

O=C1N[C@H]2[C@H](O)[C@H](O)[C@@H](O)C[C@@H]2c2cc(O)ccc21 [Compound 6, (2S,3R,4S,4aR,10bR)-2,3,4,9-Tetrahydroxy-1,3,4,4a,5,10b-hexahydrophenanthridin-6(2H)-one]
anti-HSV-1 activity (expression of EGFP and RFP reporter genes) (HSV-1 [2]): no anti-HSV-1 activity
anti-HSV-1 activity (HSV-1 [6]): no anti-HSV-1 activity
fraction of expressed genes significantly altered (02SF NPCs): 2.1%
number of genes whose expression was significantly altered (02SF NPCs): 256

COc1cccc2c1C(=O)N[C@H]1[C@H](O)[C@H](O)[C@@H](O)C[C@H]21 [Compound 7, (2S,3R,4S,4aR,10bR)-2,3,4-Trihydroxy-7-methoxy-1,3,4,4a,5,10b-hexahydrophenanthridin-6(2H)-one]
anti-HSV-1 activity (expression of EGFP and RFP reporter genes) (HSV-1 [2]): no anti-HSV-1 activity
anti-HSV-1 activity (HSV-1 [6]): no anti-HSV-1 activity
fraction of expressed genes significantly altered (02SF NPCs): 0.3%
number of genes whose expression was significantly altered (02SF NPCs): 33

O=C1N[C@H]2[C@H](O)[C@H](O)[C@@H](O)C[C@@H]2c2cccc(O)c21 [Compound Ia, (2S,3R,4S,4aR,10bR)-2,3,4,7-Tetrahydroxy-1,3,4,4a,5,10b-hexahydrophenanthridin-6(2H)-one]
organoid viability (calcein AM) [11]: No significant reduction in organoid viability
anti-HSV-1 activity (expression of EGFP and RFP reporter genes) (HSV-1 [2]): no expression of EGFP and RFP reporter genes; also recorded: comparable to 2b and ACV
EIF2 signaling pathway z score [3]: −1.763
reduction of the percentage of EGFP+-RFP+ cells (HSV-1 [6]; 01SD NPCs): 6.76 fold
reduction of the percentage of EGFP+-RFP+ cells (HSV-1 [6]; 9001 NPCs): 4.65 fold
CC [8]: 1.92 µM
cell viability of treated cultures (01SD NPC cultures; concentrations up to 50 μM, ACV and Ia compared): comparable
therapeutic selectivity (SARS-CoV2; CC / IC50, SARS-CoV2 in Calu3 cells): 20
IC50 (SARS-CoV2; Severe acute respiratory syndrome coronavirus 2, Calu-3): 90 nM
fraction of expressed genes significantly altered (02SF NPCs): 59.8%
number of genes whose expression was significantly altered (02SF NPCs): 7,433
yield of infectious virus in the tears (HSV-1 shedding) compared to vehicle (HSV-1 strain 17syn+; 2 uL of 50 μM solution in DMSO to the eyes daily for 4 days, n=10): dramatically reduced the yield of infectious virus; also recorded: dramatically reduces HSV-1 shedding
reduction of peak titer of infectious virus versus vehicle (HSV-1 strain 17syn+; 2 uL of 50 μM solution topically daily): ~3 fold
delay of peak titer of infectious virus versus vehicle (HSV-1 strain 17syn+; 2 uL of 50 μM solution topically daily, vehicle peak at day 2 post-infection): one
eIF2α~P immunoreactivity [9]: increased eIF2α˜P immunoreactivity
